Target: T1, KdpFABC (WT) (Escherichia coli, UniProt P03960)
T1 construct: gene kdpB; full-length kdpFABC operon on plasmid pSD107 (native promoter), 8x His tag at C-terminus of KdpC; expressed in E. coli TK2499; purified in decyl maltoside; KdpB Ser162 phosphate removed with lambda protein phosphatase; Potassium-transporting ATPase KdpC subunit; Potassium-transporting ATPase KdpF subunit
Test: coupled-enzyme ATPase assay (pyruvate kinase / lactate dehydrogenase)
Type: biochemical

T1 sequence (P03960 whole entry): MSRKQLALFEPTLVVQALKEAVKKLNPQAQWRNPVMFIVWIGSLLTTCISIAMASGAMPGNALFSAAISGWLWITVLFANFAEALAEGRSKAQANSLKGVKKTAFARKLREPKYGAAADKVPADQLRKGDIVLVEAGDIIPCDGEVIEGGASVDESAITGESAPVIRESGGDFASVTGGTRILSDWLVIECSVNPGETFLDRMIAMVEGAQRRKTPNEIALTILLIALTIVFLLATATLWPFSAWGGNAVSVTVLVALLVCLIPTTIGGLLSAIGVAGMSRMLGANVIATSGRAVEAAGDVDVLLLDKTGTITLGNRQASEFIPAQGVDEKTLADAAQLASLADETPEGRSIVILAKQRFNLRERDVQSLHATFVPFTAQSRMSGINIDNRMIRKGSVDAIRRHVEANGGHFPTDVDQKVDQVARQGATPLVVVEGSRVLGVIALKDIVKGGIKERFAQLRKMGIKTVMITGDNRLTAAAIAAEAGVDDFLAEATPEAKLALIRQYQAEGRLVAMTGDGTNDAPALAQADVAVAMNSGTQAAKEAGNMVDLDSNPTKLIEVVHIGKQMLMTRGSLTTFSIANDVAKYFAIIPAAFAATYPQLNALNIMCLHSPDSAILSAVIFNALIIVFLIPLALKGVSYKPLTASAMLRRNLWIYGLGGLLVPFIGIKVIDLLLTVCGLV
T1 sequence (P03959 whole entry partner): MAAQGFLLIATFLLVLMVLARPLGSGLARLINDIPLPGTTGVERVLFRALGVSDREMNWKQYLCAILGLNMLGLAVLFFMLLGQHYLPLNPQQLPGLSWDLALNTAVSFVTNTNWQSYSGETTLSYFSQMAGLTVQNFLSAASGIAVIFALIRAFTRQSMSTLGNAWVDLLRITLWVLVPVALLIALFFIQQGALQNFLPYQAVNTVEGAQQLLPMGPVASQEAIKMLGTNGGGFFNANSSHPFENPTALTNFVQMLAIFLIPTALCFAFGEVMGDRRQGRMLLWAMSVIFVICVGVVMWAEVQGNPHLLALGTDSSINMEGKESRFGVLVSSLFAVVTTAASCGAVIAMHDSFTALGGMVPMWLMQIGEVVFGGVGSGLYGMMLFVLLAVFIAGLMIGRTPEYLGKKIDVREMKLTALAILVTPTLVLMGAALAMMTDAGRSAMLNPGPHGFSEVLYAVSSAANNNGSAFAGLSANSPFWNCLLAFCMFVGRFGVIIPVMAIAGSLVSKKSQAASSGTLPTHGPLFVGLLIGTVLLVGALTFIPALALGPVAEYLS
T1 sequence (P03961 whole entry partner): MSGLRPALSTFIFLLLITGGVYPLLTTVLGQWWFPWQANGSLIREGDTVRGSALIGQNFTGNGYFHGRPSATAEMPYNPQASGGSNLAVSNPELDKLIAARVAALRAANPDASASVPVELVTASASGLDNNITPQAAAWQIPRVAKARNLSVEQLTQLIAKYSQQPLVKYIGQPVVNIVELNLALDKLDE
T1 sequence (P36937 whole entry partner): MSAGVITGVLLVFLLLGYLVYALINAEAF

Compound: [O]=[V]([OH])([OH])[OH] [orthovanadate]
- IC50: 8.4 µM
